Assay results: US7282507B2, “Indole derivatives as selective androgen receptor modulators (SARMS)” (Janssen Pharmaceutica N.V., priority 2004, dated 2007)
Several values for one entry are separate records, joined by “and”; a condition that tells them apart may be missing. Equal entries are not always repeated.

How the values were obtained:
[1] = target: T1, androgen receptor (rat ventral prostate cytosol) (Rattus norvegicus, UniProt P15207); assay: Androgen Receptor Binding Using Rat Ventral Prostate Cytosol; details: for inhibition at 1 µM / % Inhibition, Androgen Receptor Binding (Rat Cytosol): Concentration 1000 nM; for inhibition at 1 µM: read-out: % Inhibition, Androgen Receptor Binding (Rat Cytosol)
T1 construct: from tissue; host or cells: ventral prostate cytosol of castrated male Sprague Dawley or Wistar rats
T1 sequence (P15207 1-902): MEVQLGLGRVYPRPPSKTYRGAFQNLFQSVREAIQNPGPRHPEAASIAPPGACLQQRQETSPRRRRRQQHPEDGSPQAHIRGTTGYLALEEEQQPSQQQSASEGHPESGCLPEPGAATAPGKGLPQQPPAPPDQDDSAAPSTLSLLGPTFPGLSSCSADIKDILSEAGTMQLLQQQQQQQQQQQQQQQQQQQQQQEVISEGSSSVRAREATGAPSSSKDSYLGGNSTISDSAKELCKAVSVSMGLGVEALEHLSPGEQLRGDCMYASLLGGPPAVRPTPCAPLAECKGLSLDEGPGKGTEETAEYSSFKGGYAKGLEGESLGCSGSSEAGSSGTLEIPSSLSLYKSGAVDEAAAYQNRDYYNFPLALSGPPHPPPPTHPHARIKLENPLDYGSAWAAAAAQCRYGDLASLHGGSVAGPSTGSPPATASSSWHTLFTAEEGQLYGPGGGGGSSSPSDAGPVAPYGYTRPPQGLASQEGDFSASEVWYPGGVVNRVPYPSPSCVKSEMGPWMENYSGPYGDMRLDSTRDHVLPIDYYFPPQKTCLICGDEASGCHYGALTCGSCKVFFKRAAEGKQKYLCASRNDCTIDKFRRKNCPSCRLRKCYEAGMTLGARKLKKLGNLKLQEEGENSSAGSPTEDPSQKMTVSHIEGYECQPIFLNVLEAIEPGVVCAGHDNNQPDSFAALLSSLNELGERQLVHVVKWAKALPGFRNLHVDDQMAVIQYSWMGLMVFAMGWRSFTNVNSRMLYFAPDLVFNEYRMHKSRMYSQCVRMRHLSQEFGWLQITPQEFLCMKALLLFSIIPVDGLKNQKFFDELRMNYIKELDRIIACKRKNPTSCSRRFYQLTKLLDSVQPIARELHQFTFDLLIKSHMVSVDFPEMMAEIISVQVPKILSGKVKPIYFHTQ
Experimental: (§1) The assay was run on a 96 well plate with each well filled with a total reaction volume 150 μL, of a solution containing 5 pmol androgen receptor LBD (Panvera) or 30 μL of freshly prepared rat cytosol, 0.5 nM [^3H] […] (TED buffer contains 10 mM Tris.HCl pH 7.4, 1 mM sodium molybdate, 1.5 mM EDTA, 1 mM DTT and 10% (v/v) glycerol.)
(§2) On day one, the solution containing receptor, tracer and TED buffer was distributed into a 96 well plate. Diluted test compound or control vehicle was then added to individual wells and the plate incubated at 4° C. overnight.
(§3) On day two, to each well was then added 20 μL human γ-globulin (ICN 823102), prepared at 25 mg/ml in TE pH 8.0, and 55 μL 40% polyethylene glycol 8000 (J T Baker U222-08), prepared in TE pH 8.0. The plate was incubated at 4° C. for 60 minutes. During incubation, the harvester was rinsed with 10% PEG 8000, prepared in TE pH 8.0, and a GF/C Unifilter-96 was pre-wet with 10% PEG. The binding reaction was filtered, the retentate was washed three times with 10% PEG and dried under vacuum for a couple of minutes, then dried at 50° C. for 5 min and the plate was bottom sealed. Next, 25 μL of Microscint-20 (Packard) was added to the filter wells and the plate was top sealed. The plate wells were then counted on a TopCount (Packard).
Rat Prostate Cytosol Preparation:
Male Sprague Dawley or Wistar rats (Charles River, 200-300 g) were used for each preparation. The day before preparing the cytosol, the rats were castrated using standard surgical procedures.
The rats were euthanized by carbon dioxide asphyxiation. The rat prostates were quickly removed and placed on ice in pre-chilled, pre-weighed 50 mL plastic tubes. No more than five prostates were placed into one tube. The tubes were then weighed and the prostate tissue wet weights calculated.
To the chilled prostate tissue was then added […] of chilled homogenization buffer. The homogenization buffer was freshly prepared by mixing 10 mM Tris.HCl, pH 7.4, 1 mM sodium molybdate, 1.5 mM EDTA, 1 mM dithiothreitol, 10% (v/v) glycerol and 1% protease inhibitor cocktail (Sigma P 8340).
The prostate tissue was homogenized in a cold room using a pre-chilled Polytron PT3000 homogenizer (Brinkmann). Homogenization was performed at a speed setting of 20, three times for 10 sec bursts. The tubes containing the prostate tissue was kept on ice while homogenizing. The homogenate was allowed to rest on ice for 20 sec between bursts.
The homogenate was then placed into pre-chilled 3 mL polycarbonate ultracentrifuge tubes and centrifuged in the TLA-100 rotor of a TL-100 ultracentrifuge for 12 min at 100,000 rpm at 4° C. The resulting supernatant was stored in 1 mL aliquots at −80° C. until needed.
Binding to the androgen receptor was determined according to the protocol described in Example 86 using the above prepared rat cytosol.
% Inhibition was determined by testing dilutions of the test compound (usually duplicates of 10 μM) in the binding assay. Counts per well were measured and percents of inhibition determined. […] Counts per well were measured and IC50s determined by linear regression.

[2] = target: T2, androgen receptor LBD (Panvera) (Rattus norvegicus, UniProt P15207); assay: Androgen Receptor Filtration Binding Assay (PANVERA); details: [3H] R1881 tracer 0.5 nM; read-out: IC50 (nM), Androgen Receptor Binding (Panvera)
T2 construct: 5 pmol androgen receptor LBD (Panvera); purchased Panvera
T2 sequence (P15207 651-882 limits assumed): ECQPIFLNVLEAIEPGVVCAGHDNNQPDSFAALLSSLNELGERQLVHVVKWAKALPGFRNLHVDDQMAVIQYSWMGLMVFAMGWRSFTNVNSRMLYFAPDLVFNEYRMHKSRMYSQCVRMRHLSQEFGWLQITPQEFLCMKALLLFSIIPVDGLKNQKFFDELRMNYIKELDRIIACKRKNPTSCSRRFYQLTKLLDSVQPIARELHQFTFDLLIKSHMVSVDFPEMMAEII
Experimental: as §1, §2, §3
Counts per well were measured and IC50s determined by linear regression.

[3] = target: T3, androgen receptor (AdEasy+rAR, COS-7 cells) (Rattus norvegicus, UniProt P15207); assay: COS-7 Whole-Cell Androgen Receptor Binding Assay, Adenovirus Transduction; details: for IC50: read-out: IC50 (nM), COS Binding
T3 construct: expressed in transfected cells; host or cells: COS-7 cells transduced with adenovirus AdEasy+rAR
T3 sequence (P15207 1-902): T1 sequence (P15207 1-902)
In short: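 COS-7 cells in phenol red-free DMEM/F12 with 10% charcoal-treated FBS were transduced with AdEasy+rAR adenovirus (moi 1:50 per well), exposed to test compound in duplicate and incubated for 48 h at 37° C. Cells were then lysed in 0.5% Triton X-100 and bound radioactivity counted by scintillation.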

[4] = system: testosterone-enhanced ventral prostate and seminal vesicle weights; assay: Ventral Prostate and Seminal Vesicle Weight in vivo Assay; design: species or system rat; details: immature castrated male Sprague Dawley rats, once daily for five days, usually orally 40 mg/kg, with testosterone propionate 2 mg/kg s.c. Also: key: 'active' if the non weight adjusted prostate weight was ≦40 mg or the % Inhibition prostate weight, body weight adjusted was ≧40% @ 2 mg/day dosage; ID50's, if determined, of ≦15 mg/day also indicated an 'active' compound; listed herein as 'inactive' as they did not meet the specified criteria defined above.
In short: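 Wet weights of ventral prostate and seminal vesicles were taken on day six. Castrated immature male Sprague Dawley rats had received five daily doses of testosterone propionate (2 mg/kg s.c.) together with test compound, typically 40 mg/kg orally. Activity was scored from absolute prostate weight or body-weight-adjusted % inhibition.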

[5] = target: T4, androgen receptor (AdEasy+rAR, L929 cells) (Rattus norvegicus, UniProt P15207); assay: L929 Androgen Receptor Functional Assay, Adenovirus Transduction; format: cell-based
T4 construct: expressed in transfected cells; host or cells: L929 cells transduced with adenovirus AdEasy+rAR
T4 sequence (P15207 1-902): T1 sequence (P15207 1-902)
In short: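 Luminescent reporter readout after 48 h at 37 °C: rat AR delivered by adenovirus (AdEasy+rAR, moi 1:500) into L929 cells grown without phenol red in charcoal-treated serum. Antagonist wells also received R1881 (2.5× dilution at 2.5 nM).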

| Structure (SMILES) | inhibition at 1 µM [1] | IC50 [2] | other results |
| --- | --- | --- | --- |
| CC(O)(COC(=O)c1cccnc1)c1cc2cc(C#N)c(C(F)(F)F)cc2[nH]1 (stereo not drawn) [Compound 79] | 48.5% | > 9500 nM | – |
| CC(O)(COC(=O)c1ccccc1)c1cc2cc([N+](=O)[O-])c(C(F)(F)F)cc2[nH]1 (stereo not drawn) [Compound 64] | 61.5% | 815 nM | – |
| COC(=O)c1ccc2[nH]c(C(C)(O)CSC3CCCCC3)cc2c1 (stereo not drawn) [Compound 94] | 21.8% | 15000 nM | – |
| CC(O)(CSC1CCCCC1)c1cc2cc(C#N)c(C(F)(F)F)cc2[nH]1 (stereo not drawn) [Compound 92] | 14.7% | 37000 nM | – |
| CC(O)(COC(=O)c1ccc(Cl)cc1)c1cc2cc(Cl)ccc2[nH]1 (stereo not drawn) [Compound 53] | 9.75% | 1970 nM | – |
| CC(O)(SC1CCCCC1)c1cc2cc([N+](=O)[O-])c(C(F)(F)F)cc2[nH]1 (racemic) [Compound 256] | – | 2650 nM | – |
| CC(O)(C[S+]([O-])c1ccc(Cl)c(Cl)c1)c1cc2cc(Cl)c(C(F)(F)F)cc2[nH]1 (stereo not drawn) [Compound 116] | 28.4% | 1750 nM | – |
| CC(O)(CSc1ccccc1)c1cc2ccccc2n1S(C)(=O)=O (stereo not drawn) [Compound 90] | -2.5% | > 9000 nM | – |
| CC(O)(COC(=O)c1ccc(Cl)cc1)c1cc2cc(Cl)c(C(F)(F)F)cc2[nH]1 (racemic) [Compound 62] | – | 325 nM | % Inhibition, Androgen Receptor Binding (Rat Cytosol) [1]: 69% |
| CC(O)(COC(=O)c1ccc(Cl)c(Cl)c1)c1cc2cc([N+](=O)[O-])c(C(F)(F)F)cc2[nH]1 (stereo not drawn) [Compound 56] | 38.5% | 485 nM and 610 nM | – |
| CC(O)(CSc1ccc(Cl)c(Cl)c1)c1cc2cc(Cl)c(C(F)(F)F)cc2n1S(C)(=O)=O (stereo not drawn) [Compound 86] | 72.5% | 1250 nM | IC50 ([1]; read-out: IC50 (nM), Androgen Receptor Binding (Rat Cytosol)): 240 nM |
| CC(O)(COC(=O)c1ccccn1)c1cc2cc([N+](=O)[O-])c(C(F)(F)F)cc2[nH]1 (stereo not drawn) [Compound 68] | 36% | 19000 nM | – |
| CC(O)(CSc1ccc(Cl)cc1)c1cc2nc(C(F)(F)F)ccc2[nH]1 (racemic) [Compound 3] | 6.6% | 26000 nM | – |
| CC(O)(COC(=O)c1ccc(F)cc1)c1cc2cc(C#N)c(C(F)(F)F)cc2[nH]1 (stereo not drawn) [Compound 77] | -9.25% | 1110 nM | – |
| CS(=O)(=O)n1c(C2(O)CCN(C(=O)OCc3ccccc3)CC2)cc2cc(Cl)c(C(F)(F)F)cc21 [Compound 19] | – | > 100000 nM | % Inhibition, Androgen Receptor Binding (Rat Cytosol) [1]: −55% |
| CC(O)(Sc1ccc(Cl)cc1)c1cc2cc([N+](=O)[O-])c(C(F)(F)F)cc2[nH]1 (racemic) [Compound 259] | – | 915 nM | – |
| CCSCC(C)(O)c1cc2cc(Cl)c(C(F)(F)F)cc2[nH]1 (stereo not drawn) [Compound 152] | – | – | inhibition at 3 µM ([3]; concentration of 3000 nM): 39%; IC50 [3]: 108 nM; inhibition at 3 µM ([1]; Concentration 3000 nM): 97%; active / inactive: inhibition of testosterone-enhanced prostate weight [4]: inactive |
| CC(O)(CSc1ccc([N+](=O)[O-])cc1)c1cc2cc([N+](=O)[O-])c(C(F)(F)F)cc2[nH]1 (stereo not drawn) [Compound 103] | – | 1650 nM | – |
| CC(O)(SC1CCCCC1)c1cc2cc(C#N)c(C(F)(F)F)cc2[nH]1 (racemic) [Compound 257] | – | 5150 nM | – |
| CC(O)(CSc1ccc(Cl)cc1)c1cc2ccccc2[nH]1 (stereo not drawn) [Compound 89] | – | > 9600 nM | – |
| CC(O)(C[S+]([O-])c1ccc(F)cc1)c1cc2cc(Cl)c(C(F)(F)F)cc2[nH]1 (stereo not drawn) [Compound 113] | – | 5100 nM | active / inactive: inhibition of testosterone-enhanced prostate weight [4]: inactive |
| CCSCC(C)(O)c1cc2cc(C#N)c(C(F)(F)F)cc2[nH]1 (stereo not drawn) [Compound 209] | – | – | inhibition at 3 µM ([3]; concentration of 3000 nM): 61%; IC50 [3]: 1840 nM; active / inactive: inhibition of testosterone-enhanced prostate weight [4]: active; EC50 ([5]; agonist testing): > 8000 nM; % Activity, L929 androgen receptor functional assay ([5]; agonist testing, @ 8000 nM): −3 @ 8000 nM %; IC50 ([5]; antagonist testing with R1881): 372 nM |
| CC(O)(CSCC(F)(F)F)c1cc2cc([N+](=O)[O-])c(C(F)(F)F)cc2[nH]1 (stereo not drawn) [Compound 201] | – | – | % Inhibition, COS Binding ([3]; concentration of 3000 nM, 3 µM): 86%; IC50 [3]: 340 nM; active / inactive: inhibition of testosterone-enhanced prostate weight [4]: inactive; % Activity, L929 androgen receptor functional assay ([5]; agonist testing, 3000 nM, 3 µM): 2%; % Inhibition, L929 androgen receptor functional assay ([5]; antagonist testing with R1881, 3000 nM, 3 µM): 83% |
